Experimental data taken from article PMC5597618, “Identification and characterization of the novel reversible and selective cathepsin X inhibitors” (Scientific Reports, 2017).

What was measured:
PC-12 cells = test: Neurite outgrowth assay; assay type: cell-based, rat; details: 10 µM; 48 h; vs DMSO control
Description: Human prostate cancer cell line PC-3 cells (obtained from ATCC, Manassas, USA; ATCC Number: CRL-1435) were cultured in F-12 (Gibco) and Advanced DMEM (Gibco) (1:1) with 10% FBS, 1% penicillin/streptomycin and 1% L-glutamine. Rat pheochromocytoma PC-12 cells (obtained from ATCC, Manassas, USA; ATCC Number: CRL-1721) were cultured in Advanced DMEM (Gibco) with 5% FBS, 10% heat-inactivated horse serum, 1% penicillin/streptomycin and 1% L-glutamine.
PC-12 cells were seeded in 96-well plates (4 × 10^4/well) coated with poly-L-lysine. Next day, the cells were treated with compounds (10 µM) in serum-free medium, and neurite outgrowth was measured after 48 h using Neurite Outgrowth Staining Kit (Molecular Probes), in accordance with the manufacturer’s instructions. Fluorescence intensity was measured at 525 nm with excitation at 483 nm for cell viability indicator and at 567 nm with excitation at 554 nm for cell membrane indicator. Results, expressing increased neurite outgrowth, were normalized to cells treated with DMSO.

cathepsin X = cathepsin X (Homo sapiens, UniProt Q9UBR2); test: Labeling of cathepsin X with activity-based probe DCG-04 in PC-3 cell lysate; assay type: biochemical; parameters: endogenous in cells; host or cells: PC-3; details: 10 µM inhibitor
Description: Evaluation of cellular uptake and retention of compound 22: sample preparation and LC- […]
PC-3 cells were treated for 1 hour with compound 22 (50 µM). Cells were washed twice with cold PBS, trypsinized, washed once more and centrifuged. A pellet of cells was resuspended in 200 µL of PBS (or in 200 µL of PBS containing 5µM inhibitor for standard addition) and transferred to 1.5 mL Eppendorf vials prefilled with 0.1 mm and 0.5 mm glass beads (NextAdvance, USA). All cell samples were then homogenized with a BulletBlender (NextAdvance, USA) for 5 min at speed setting »6«. […]
(2.30;50), (2.50;50), (2.6;5). […] ESI Jetstream parameters were set as follows: drying gas temperature 275 °C, drying gas flow 5 L/min, nebulizer 45 psi, sheath gas temperature 320 °C, sheath gas flow 11 L/min, capillary entrance voltage 4000 V and nozzle voltage 1000 V. Quadrupoles Q1 and Q3 were set at the widest resolution (2.5 amu) and multiple reaction monitoring (MRM) mass transitions used for the quantification of recorded traces are presented in Supplementary Table S4. […]
PC-3 cell lysate was diluted in cathepsin X assay buffer (1 mg/ml protein concentration). […] After blocking with 5% skimmed milk powder in TBS with 0.05% Tween 20, membrane was incubated with streptavidin-HRP (1:5000; Jackson ImmunoResearch) for 1 hour and proteins were detected with […]

cathepsin X, sequence (Q9UBR2 62-303): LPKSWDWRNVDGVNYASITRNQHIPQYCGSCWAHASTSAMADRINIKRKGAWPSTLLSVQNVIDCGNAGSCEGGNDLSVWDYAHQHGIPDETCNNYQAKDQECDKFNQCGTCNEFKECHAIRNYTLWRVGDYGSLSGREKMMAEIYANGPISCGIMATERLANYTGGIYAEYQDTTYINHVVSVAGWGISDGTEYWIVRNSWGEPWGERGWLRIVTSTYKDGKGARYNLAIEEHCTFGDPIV

CC(C)n1cnnc1SCC(=O)c1ccc2c(c1)OCCO2 [Compound 22, 1-(2,3-Dihydrobenzo[b][1,4]dioxin-6-yl)-2-((4-isopropyl-4H-1,2,4-triazol-3-yl)thio)ethan-1-one]
increase of neurite outgrowth (PC-12 cells): 85% | delay of cathepsin X labeling by DCG-04 (cathepsin X): approximately 20 minutes
